Tested on: Mycobacterium tuberculosis Erdman
Experiment: Biofilm inhibition of Mycobacterium tuberculosis (ocular inspection)
Type: cell-based
Conditions: for inhibition at 10 µM / inhibition at 25 µM / inhibition at 50 µM / inhibition at 100 µM: biofilm inhibition, average of three or more measurements (100/50/0% scoring); for inhibition at 10 µM: read-out: Average % Inhibition at 10 μM; for inhibition at 25 µM: read-out: Average % Inhibition at 25 μM; for minimal effective concentration: concentration at which full biofilm inhibition took place, replicate determinations in one cell

For `CON(C)C(=O)[C@@H]1CSc2c(C3CC3)c(Cc3cccc4ccccc34)cc(=O)n21` [Example 11, (N-Methylmethoxyamino){(3R)-7-cyclopropyl-6-[(1-naphthyl)methyl]-4-oxo-1-thia-3a-aza-3-indanyl}formaldehyde], the inhibition at 10 µM was 75%, the inhibition at 25 µM was 38% and the inhibition at 50 µM was 88%.

Molecule `Cc1ccc(F)c(Cc2cc(=O)n3c(c2C2CC2)SC[C@H]3C(=O)O)c1` [Example 8, (3R)-7-Cyclopropyl-6-[(2-fluoro-5-methyl-phenyl)methyl]-4-oxo-1-thia-3a-aza-3-indancarboxylic acid] has an inhibition at 10 µM of 75%, an inhibition at 25 µM of 63% and an inhibition at 50 µM of 75%. The minimal effective concentration was 25 µM.

With `O=C(O)C1CSc2c(C3CC3)c(Cc3cccc(C(F)(F)F)c3)cc(=O)n21` (centres unmarked) [Example 36, 7-Cyclopropyl-4-oxo-6-{[m-(trifluoromethyl)phenyl]methyl}-1-thia-3a-aza-3-indancarboxylic acid] the inhibition at 10 µM was 100%, the inhibition at 25 µM was 100% and the inhibition at 50 µM was 100%.

Molecule `CC1(C)Sc2c(C3CC3)c(Cc3cccc4ccccc34)cc(=O)n2[C@@H]1C(=O)O` [Example 46, (3R)-7-Cyclopropyl-2,2-dimethyl-6-[(1-naphthyl)methyl]-4-oxo-1-thia-3a-aza-3-indancarboxylic acid] has an inhibition at 25 µM of 62% and an inhibition at 50 µM of 38%.

Work on `O=C(O)C1CS(=O)(=O)c2c(C3CC3)c(Cc3cccc4ccccc34)cc(=O)n21` (centres unmarked) [Example 42, 7-Cyclopropyl-6-[(1-naphthyl)methyl]-1,1-dioxo-4-oxo-1-thia-3a-aza-3-indancarboxylic acid] yielded an inhibition at 10 µM of 50%, an inhibition at 25 µM of 12% and an inhibition at 50 µM of 12%.

For `O=C(O)[C@@H]1CSc2c(C3CC3)c(Cc3cccc4ccccc34)c(Br)c(=O)n21` [Example 41, (3R)-5-Bromo-7-cyclopropyl-6-[(1-naphthyl)methyl]-4-oxo-1-thia-3a-aza-3-indancarboxylic acid], the inhibition at 10 µM was 25%, the inhibition at 25 µM was 62% and the inhibition at 50 µM was 88%. The inhibition at 100 µM was 100%.

In the case of `CS(=O)(=O)NC(=O)[C@@H]1CSc2c(C3CC3)c(Cc3cccc4ccccc34)cc(=O)n21` [Example 26, {(3R)-7-Cyclopropyl-6-[(1-naphthyl)methyl]-4-oxo-1-thia-3a-aza-3-indanyl}(methylsulfonylamino)formaldehyde], the minimal effective concentration is reported as 50 µM.

For `O=C(O)[C@@H]1CSc2c(C3CC3)c(Cc3cccc4ccccc34)c(CO)c(=O)n21` [Example 32, (3R)-7-Cyclopropyl-5-(hydroxymethyl)-6-[(1-naphthyl)methyl]-4-oxo-1-thia-3a-aza-3-indancarboxylic acid], the minimal effective concentration was 50 µM.

Work on `O=c1cc(Cc2cccc3ccccc23)c(C2CC2)c2n1CCS2` [Example 31, 7-Cyclopropyl-6-[(1-naphthyl)methyl]-1-thia-3a-aza-4-indanone] yielded an inhibition at 50 µM of 100%.

Work on `Cc1cccc(-c2sc3c(C4CC4)c(Cc4cccc5ccccc45)cc(=O)n3c2C(=O)O)c1` [Example 14, 5-Cyclopropyl-4-[(1-naphthyl)methyl]-2-oxo-8-(m-tolyl)-7-thia-1-azabicyclo[4.3.0]nona-3,5,8-triene-9-carboxylic acid] yielded an inhibition at 10 µM of 0%, an inhibition at 25 µM of 88% and an inhibition at 50 µM of 100%.

Work on `CC(C)c1c(Cc2cccc3ccccc23)cc(=O)n2c1SC[C@H]2C(=O)O` [Example 23, (3R)-7-Isopropyl-6-[(1-naphthyl)methyl]-4-oxo-1-thia-3a-aza-3-indancarboxylic acid] yielded an inhibition at 25 µM of 12% and an inhibition at 50 µM of 50%.

Work on `O=C(O)[C@@H]1CSc2c(C3CC3)c(Cc3cccc(Cl)c3Cl)cc(=O)n21` [Example 20, (3R)-7-Cyclopropyl-6-[(2,3-dichlorophenyl)methyl]-4-oxo-1-thia-3a-aza-3-indancarboxylic acid] yielded an inhibition at 10 µM of 75%, an inhibition at 25 µM of 100% and an inhibition at 50 µM of 100%. The minimal effective concentration was 25 µM.

With `CCOc1c(Cc2cccc3ccccc23)cc(=O)n2c1SC[C@H]2C(=O)O` [Example 45, (3R)-7-Ethoxy-6-[(1-naphthyl)methyl]-4-oxo-1-thia-3a-aza-3-indancarboxylic acid] the inhibition at 25 µM was 50% and the inhibition at 50 µM was 25%.

In the case of `COc1ccc(Cc2cc(=O)n3c(c2C2CC2)SCC3C(=O)O)c2ccccc12` (centres unmarked) [Example 39, 7-Cyclopropyl-6-[(4-methoxy-1-naphthyl)methyl]-4-oxo-1-thia-3a-aza-3-indancarboxylic acid], the inhibition at 10 µM is reported as 50%, the inhibition at 25 µM is reported as 100% and the inhibition at 50 µM is reported as 100%.

`O=C(O)C1C[S+]([O-])c2c(C3CC3)c(Cc3cccc4ccccc34)cc(=O)n21` (centres unmarked) [Example 44, 7-Cyclopropyl-6-[(1-naphthyl)methyl]-1-oxo-4-oxo-1-thia-3a-aza-3-indancarboxylic acid] was tested, and the inhibition at 10 µM was 25%, the inhibition at 25 µM was 75% and the inhibition at 50 µM was 100%.

`O=C(O)c1c(Cc2ccccc2)sc2c(C3CC3)c(Cc3cccc4ccccc34)cc(=O)n12` [Example 19, 8-Benzyl-5-cyclopropyl-4-[(1-naphthyl)methyl]-2-oxo-7-thia-1-azabicyclo[4.3.0]nona-3,5,8-triene-9-carboxylic acid] was tested, and the inhibition at 10 µM was 0%, the inhibition at 25 µM was 0% and the inhibition at 50 µM was 88%. The inhibition at 100 µM was 100%.

Molecule `Cc1c(Cc2cccc3ccccc23)cc(=O)n2c1SC[C@H]2C(=O)O` [Example 10, (3R)-7-Methyl-6-[(1-naphthyl)methyl]-4-oxo-1-thia-3a-aza-3-indancarboxylic acid] has an inhibition at 10 µM of 69%, an inhibition at 25 µM of 100% and an inhibition at 50 µM of 100%.

For `O=C(O)c1c(-c2ccccc2)sc2c(C3CC3)c(Cc3cccc4ccccc34)cc(=O)n12` [Example 13, 5-Cyclopropyl-4-[(1-naphthyl)methyl]-2-oxo-8-phenyl-7-thia-1-azabicyclo[4.3.0]nona-3,5,8-triene-9-carboxylic acid], the inhibition at 10 µM was 62%, the inhibition at 25 µM was 75% and the inhibition at 50 µM was 100%. The minimal effective concentration was 50 µM.

Molecule `O=C(O)[C@@H]1CSc2c(C3CC3)c(Cc3cc4ccccc4s3)cc(=O)n21` [Example 2, (3R)-7-Cyclopropyl-4-oxo-6-{(7-thiabicyclo[4.3.0]nona-1,3,5,8-tetraen-8-yl)methyl}-1-thia-3a-aza-3-indancarboxylic acid] has an inhibition at 10 µM of 63%, an inhibition at 25 µM of 100% and an inhibition at 50 µM of 75%. It also gave a minimal effective concentration of 25 µM.

In the case of `O=C(O)[C@@H]1CSc2c(C3CC3)c(Cc3ccc(Br)c4ccccc34)cc(=O)n21` [Example 30, (3R)-6-[(4-Bromo-1-naphthyl)methyl]-7-cyclopropyl-4-oxo-1-thia-3a-aza-3-indancarboxylic acid], the minimal effective concentration is reported as 50 µM.

`O=C(O)[C@@H]1CSc2c(OCC3CC3)c(Cc3cccc4ccccc34)cc(=O)n21` [Example 50, (3R)-7-(Cyclopropylmethoxy)-6-[(1-naphthyl)methyl]-4-oxo-1-thia-3a-aza-3-indancarboxylic acid] showed an inhibition at 50 µM of 25%.

`Cc1cccc(CCc2cc(=O)n3c(c2C(C)C)SC[C@H]3C(=O)O)c1` [Example 28, (3R)-7-Isopropyl-4-oxo-6-[2-(m-tolyl)ethyl]-1-thia-3a-aza-3-indancarboxylic acid] showed a minimal effective concentration of 50 µM.

Work on `O=C(O)[C@@H]1[C@@H](c2ccccc2)Sc2c(C3CC3)c(Cc3cccc4ccccc34)cc(=O)n21` [Example 34, (2R,3R)-7-Cyclopropyl-6-[(1-naphthyl)methyl]-4-oxo-2-phenyl-1-thia-3a-aza-3-indancarboxylic acid] yielded an inhibition at 50 µM of 25% and a minimal effective concentration of 30 µM.

In the case of `Cc1cccc(NCc2cc(=O)n3c(c2C2CC2)SC[C@H]3C(=O)O)c1C` [Example 43, (3R)-7-Cyclopropyl-4-oxo-6-[(2,3-xylidino)methyl]-1-thia-3a-aza-3-indancarboxylic acid], the inhibition at 25 µM is reported as 50% and the inhibition at 50 µM is reported as 100%.

With `O=C(O)[C@@H]1CSc2c(C(F)(F)F)c(Cc3cccc4ccccc34)cc(=O)n21` [Example 47, (3R)-6-[(1-Naphthyl)methyl]-4-oxo-7-(trifluoromethyl)-1-thia-3a-aza-3-indancarboxylic acid] the inhibition at 50 µM was 100% and the minimal effective concentration was over 50 µM.

With `O=C(O)[C@@H]1CSc2c(C3CC3)c(Cc3ccc(Cl)cc3)cc(=O)n21` [Example 25, (3R)-6-[(p-Chlorophenyl)methyl]-7-cyclopropyl-4-oxo-1-thia-3a-aza-3-indancarboxylic acid] the inhibition at 25 µM was 12% and the inhibition at 50 µM was 50%.

For `O=C(O)[C@@H]1CSc2c(-c3cccs3)c(Cc3cccc4ccccc34)cc(=O)n21` [Example 17, (3R)-6-[(1-Naphthyl)methyl]-4-oxo-7-(2-thienyl)-1-thia-3a-aza-3-indancarboxylic acid], the inhibition at 10 µM was 25%, the inhibition at 25 µM was 38% and the inhibition at 50 µM was 100%. It also gave a minimal effective concentration of 50 µM.

In the case of `O=C(O)c1c(-c2c[nH]nn2)sc2c(C3CC3)c(Cc3cccc4ccccc34)cc(=O)n12` [Example 18, 5-Cyclopropyl-4-[(1-naphthyl)methyl]-2-oxo-8-(1H-1,2,3-triazol-4-yl)-7-thia-1-azabicyclo[4.3.0]nona-3,5,8-triene-9-carboxylic acid], the inhibition at 10 µM is reported as 12%, the inhibition at 25 µM is reported as 12% and the inhibition at 50 µM is reported as 38%.

In the case of `Cc1cccc(Cc2cc(=O)n3c(c2C2CC2)SC[C@H]3C(=O)O)c1` [Example 27, (3R)-7-Cyclopropyl-4-oxo-6-[(m-tolyl)methyl]-1-thia-3a-aza-3-indancarboxylic acid], the inhibition at 10 µM is reported as 75%, the inhibition at 25 µM is reported as 88% and the inhibition at 50 µM is reported as 100%. The minimal effective concentration was 25 µM.

For `N[C@@H]1CSc2c(C3CC3)c(Cc3cccc4ccccc34)cc(=O)n21` [Example 33, (3S)-3-Amino-7-cyclopropyl-6-[(1-naphthyl)methyl]-1-thia-3a-aza-4-indanone], the minimal effective concentration was 25 µM.

Reference: patent US20230115208A1, “RING-FUSED THIAZOLINO 2-PYRIDONES, METHODS FOR PREPARATION THEREOF AND THEIR USE IN THE TREATMENT AND/OR PREVENTION OF TUBERCULOSIS” (QURETECH BIO AB, priority 2016, published 2023)
